In patent publication US20050070510A1, “Substituted tetracycline compounds as synergistic antifungal agents” (Paratek Pharmaceuticals, Inc., priority 2001, published 2005):

tested on: COS-1 cells; experiment: In vitro mammalian cytotoxicity assay (Resazurin)

| SMILES | In Vitro Cytotoxicity |
| --- | --- |
| CN(C)[C@@H]1C(O)=C(C(N)=O)C(=O)[C@@]2(C#N)C(O)=C3C(=O)c4c(O)c(C(C)(C)C)cc(-c5cnc6ccccc6c5)c4C[C@@]3(N)C[C@@]12N [OV] | * (toxicities greater than >25 μg/ml are represented by *) |
| CCc1ccnc(-c2ccc(O)c3c2C[C@@]2(N)C[C@@]4(N)[C@H](N(C)C)C(O)=C(C(N)=O)C(=O)[C@@]4(C#N)C(O)=C2C3=O)c1 [VB] | ** (toxicities less than 25 μg/mL are represented by **) |
| CN(C)c1cc(C#Cc2ccc(N)cc2)c(O)c2c1C[C@@]1(N)C[C@@]3(N)[C@H](N(C)C)C(O)=C(C(N)=O)C(=O)[C@@]3(C#N)C(O)=C1C2=O [JG] | * (toxicities greater than >25 μg/ml are represented by *) |
| Cc1cccc(-c2ccc(O)c3c2C[C@@]2(N)C[C@@]4(N)[C@H](N(C)C)C(O)=C(C(N)=O)C(=O)[C@@]4(C#N)C(O)=C2C3=O)n1 [VJ] | ** (toxicities less than 25 μg/mL are represented by **) |
| CN(C)[C@@H]1C(O)=C(C(N)=O)C(=O)[C@@]2(C#N)C(O)=C3C(=O)c4c(O)ccc(-c5cccc(CN6CCOCC6)c5)c4C[C@@]3(N)C[C@@]12N [HS] | * (toxicities greater than >25 μg/ml are represented by *) |
| CN(C)[C@@H]1C(O)=C(C(N)=O)C(=O)[C@@]2(C#N)C(O)=C3C(=O)c4c(O)cccc4/C(=C\c4ccc(F)cc4)[C@@]3(N)[C@H]([S+](N)[O-])[C@@]12N (some centres unmarked) [BU] | ** (toxicities less than 25 μg/mL are represented by **) |
| CCCC(Nc1ccc2c(c1O)C(=O)C1=C(O)[C@]3(C#N)C(=O)C(C(N)=O)=C(O)[C@@H](N(C)C)[C@]3(N)[C@@H](O)[C@]1(N)[C@H]2N)C(=O)OCC (some centres unmarked) [CG] | ** (toxicities less than 25 μg/mL are represented by **) |
| CC(C)CNC(=N)Nc1cc(N(C)C)c2c(c1O)C(=O)C1=C(O)[C@]3(C#N)C(=O)C(C(N)=O)=C(O)[C@@H](N(C)C)[C@]3(N)C[C@]1(N)C2 [MM] | * (toxicities greater than >25 μg/ml are represented by *) |
| CN(C)c1cc(NCCc2ccccc2)c(O)c2c1C[C@@]1(N)C[C@@]3(N)[C@H](N(C)C)C(O)=C(C(N)=O)C(=O)[C@@]3(C#N)C(O)=C1C2=O [LN] | ** (toxicities less than 25 μg/mL are represented by **) |
| COc1ccc(CNCc2ccc(-c3ccc(O)c4c3C[C@@]3(N)C[C@@]5(N)[C@H](N(C)C)C(O)=C(C(N)=O)C(=O)[C@@]5(C#N)C(O)=C3C4=O)cc2)cc1 [PI] | ** (toxicities less than 25 μg/mL are represented by **) |
| CN(C)[C@@H]1C(O)=C(C(N)=O)C(=O)[C@@]2(C#N)C(O)=C3C(=O)c4c(O)ccc(-c5ccccn5)c4[C@H](N)[C@@]3(N)[C@H](O)[C@@]12N [CN] | * (toxicities greater than >25 μg/ml are represented by *) |
| CN(C)c1cc(CNC(N)=O)c(O)c2c1C[C@@]1(N)C[C@@]3(N)[C@H](N(C)C)C(O)=C(C(N)=O)C(=O)[C@@]3(C#N)C(O)=C1C2=O [TD] | * (toxicities greater than >25 μg/ml are represented by *) |
| CCCc1cc(CN)c(O)c2c1C[C@@]1(N)C[C@@]3(N)[C@H](N(C)C)C(O)=C(C(N)=O)C(=O)[C@@]3(C#N)C(O)=C1C2=O [JS] | * (toxicities greater than >25 μg/ml are represented by *) |
| COc1ccc(C#Cc2cc(N(C)C)c3c(c2O)C(=O)C2=C(O)[C@]4(C#N)C(=O)C(C(N)=O)=C(O)[C@@H](N(C)C)[C@]4(N)C[C@]2(N)C3)cc1 [FE] | ** (toxicities less than 25 μg/mL are represented by **) |
| COc1ccc(CNC2CCCCC2)cc1-c1ccc(O)c2c1C[C@@]1(N)C[C@@]3(N)[C@H](N(C)C)C(O)=C(C(N)=O)C(=O)[C@@]3(C#N)C(O)=C1C2=O [LQ] | * (toxicities greater than >25 μg/ml are represented by *) |
| CN(C)c1cc(C#Cc2ccc(F)cc2)c(O)c2c1C[C@@]1(N)C[C@@]3(N)[C@H](N(C)C)C(O)=C(C(N)=O)C(=O)[C@@]3(C#N)C(O)=C1C2=O [FF] | ** (toxicities less than 25 μg/mL are represented by **) |
| C=CCNc1ccc2c(c1O)C(=O)C1=C(O)[C@]3(C#N)C(=O)C(C(N)=O)=C(O)[C@@H](N(C)C)[C@]3(N)[C@@H](O)[C@]1(N)[C@H]2N [CI] | ** (toxicities less than 25 μg/mL are represented by **) |
| CN(C)[C@@H]1C(O)=C(C(N)=O)C(=O)[C@@]2(C#N)C(O)=C3C(=O)c4c(O)ccc(-c5ccccc5)c4C[C@@]3(N)C[C@@]12N [CX] | * (toxicities greater than >25 μg/ml are represented by *) |
| CC(CF)Nc1ccc(-c2ccc(O)c3c2C[C@@]2(N)C[C@@]4(N)[C@H](N(C)C)C(O)=C(C(N)=O)C(=O)[C@@]4(C#N)C(O)=C2C3=O)cc1 (some centres unmarked) [VK] | ** (toxicities less than 25 μg/mL are represented by **) |
| CC(C)c1ccc(CNc2cc(N(C)C)c3c(c2O)C(=O)C2=C(O)[C@]4(C#N)C(=O)C(C(N)=O)=C(O)[C@@H](N(C)C)[C@]4(N)C[C@]2(N)C3)cc1 [TV] | ** (toxicities less than 25 μg/mL are represented by **) |
| CN(C)[C@@H]1C(O)=C(C(N)=O)C(=O)[C@@]2(C#N)C(O)=C3C(=O)c4c(O)c(F)cc(CN)c4C[C@@]3(N)C[C@@]12N [NQ] | ** (toxicities less than 25 μg/mL are represented by **) |

| SMILES | In Vitro Cytotoxicity |
| --- | --- |
| COc1ccc(CNC(C)C)cc1-c1ccc(O)c2c1C[C@@]1(N)C[C@@]3(N)[C@H](N(C)C)C(O)=C(C(N)=O)C(=O)[C@@]3(C#N)C(O)=C1C2=O [LS] | * (toxicities greater than >25 μg/ml are represented by *) |
| C=CCOC(=O)Nc1ccc(-c2ccc(O)c3c2C[C@@]2(N)C[C@@]4(N)[C@H](N(C)C)C(O)=C(C(N)=O)C(=O)[C@@]4(C#N)C(O)=C2C3=O)cc1 [OZ] | ** (toxicities less than 25 μg/mL are represented by **) |
| COc1ccc(-c2cc(N(C)C)c3c(c2O)C(=O)C2=C(O)[C@]4(C#N)C(=O)C(C(N)=O)=C(O)[C@@H](N(C)C)[C@]4(N)C[C@]2(N)C3)cc1 [EA] | ** (toxicities less than 25 μg/mL are represented by **) |
| CN(C)[C@@H]1C(O)=C(C(N)=O)C(=O)[C@@]2(C#N)C(O)=C3C(=O)c4c(ccc(NC5CCC(Cc6ccccc6)CC5)c4O)[C@H](N)[C@@]3(N)[C@H](O)[C@@]12N (some centres unmarked) [RS] | * (toxicities greater than >25 μg/ml are represented by *) |
| CC(=O)OCCCC(C)(C)c1ccc2c(c1O)C(=O)C1=C(O)[C@]3(C#N)C(=O)C(C(N)=O)=C(O)[C@@H](N(C)C)[C@]3(N)[C@@H](O)[C@]1(N)[C@H]2N [BA] | ** (toxicities less than 25 μg/mL are represented by **) |
| CN(C)[C@@H]1C(O)=C(C(N)=O)C(=O)[C@@]2(C#N)C(O)=C3C(=O)c4c(O)c(C(C)(C)C)cc(-c5cccc([N+](=O)O)c5)c4C[C@@]3(N)C[C@@]12N [KS] | ** (toxicities less than 25 μg/mL are represented by **) |
| CC#Cc1cc(C#CC)c2c(c1O)C(=O)C1=C(O)[C@]3(C#N)C(=O)C(C(N)=O)=C(O)[C@@H](N(C)C)[C@]3(N)C[C@]1(N)C2 [NI] | ** (toxicities less than 25 μg/mL are represented by **) |
| CC(C)CNC(=O)NCc1cc(N(C)C)c2c(c1O)C(=O)C1=C(O)[C@]3(C#N)C(=O)C(C(N)=O)=C(O)[C@@H](N(C)C)[C@]3(N)C[C@]1(N)C2 [MF] | * (toxicities greater than >25 μg/ml are represented by *) |
| CN(C)[C@@H]1C(O)=C(C(N)=O)C(=O)[C@@]2(C#N)C(O)=C3C(=O)c4c(O)cccc4C[C@@]3(N)[C@H](NC(=O)CCN3CCOCC3)[C@@]12N [EZ] | ** (toxicities less than 25 μg/mL are represented by **) |
| CC(C)COC(=O)NCc1ccc(-c2ccc(O)c3c2C[C@@]2(N)C[C@@]4(N)[C@H](N(C)C)C(O)=C(C(N)=O)C(=O)[C@@]4(C#N)C(O)=C2C3=O)cc1 [NS] | ** (toxicities less than 25 μg/mL are represented by **) |
| CC(C)NCc1ccc(-c2ccc(O)c3c2C[C@@]2(N)C[C@@]4(N)[C@H](N(C)C)C(O)=C(C(N)=O)C(=O)[C@@]4(C#N)C(O)=C2C3=O)c2ccccc12 [OE] | ** (toxicities less than 25 μg/mL are represented by **) |
| CN(C)[C@@H]1C(O)=C(C(N)=O)C(=O)[C@@]2(C#N)C(O)=C3C(=O)c4c(O)ccc(-c5ccc(CNCCc6ccc(Cl)cc6)cc5)c4C[C@@]3(N)C[C@@]12N [OF] | ** (toxicities less than 25 μg/mL are represented by **) |
| COCC#Cc1ccc(O)c2c1C[C@@]1(N)C[C@@]3(N)[C@H](N(C)C)C(O)=C(C(N)=O)C(=O)[C@@]3(C#N)C(O)=C1C2=O [HI] | * (toxicities greater than >25 μg/ml are represented by *) |
| CN(C)[C@@H]1C(O)=C(C(N)=O)C(=O)[C@@]2(C#N)C(O)=C3C(=O)c4c(O)c(-c5cccc6c5OCO6)cc(-c5ccc6c(c5)OCO6)c4[C@H](N)[C@@]3(N)[C@H](O)[C@@]12N [PU] | ** (toxicities less than 25 μg/mL are represented by **) |
| CN(C)[C@@H]1C(O)=C(C(N)=O)C(=O)[C@@]2(C#N)C(O)=C3C(=O)c4c(ccc(C(C)(C)C)c4O)[C@H](N)[C@@]3(N)[C@H](O)[C@@]12N [BB] | ** (toxicities less than 25 μg/mL are represented by **) |
| CN(C)[C@@H]1C(O)=C(C(N)=O)C(=O)[C@@]2(C#N)C(O)=C3C(=O)c4c(O)ccc(-c5ccc(CN6CCOCC6)c6ccccc56)c4C[C@@]3(N)C[C@@]12N [ON] | ** (toxicities less than 25 μg/mL are represented by **) |
| CN(C)[C@@H]1C(O)=C(C(N)=O)C(=O)[C@@]2(C#N)C(O)=C3C(=O)c4c(ccc(Nc5nc(-c6ccc(F)cc6)cs5)c4O)C[C@@]3(N)C[C@@]12N [EB] | * (toxicities greater than >25 μg/ml are represented by *) |
| CN(C)[C@@H]1C(O)=C(C(N)=O)C(=O)[C@@]2(C#N)C(O)=C3C(=O)c4c(ccc(-c5ccc(C=O)c6ccccc56)c4O)[C@H](N)[C@@]3(N)[C@H](O)[C@@]12N [PN] | ** (toxicities less than 25 μg/mL are represented by **) |
| COc1cc(C/C=C\c2ccc(O)c3c2C[C@@]2(N)C[C@@]4(N)[C@H](N(C)C)C(O)=C(C(N)=O)C(=O)[C@@]4(C#N)C(O)=C2C3=O)ccc1O [HW] | ** (toxicities less than 25 μg/mL are represented by **) |
| COC(=O)CCC(=O)Nc1ccc(-c2ccc(O)c3c2C[C@@]2(N)C[C@@]4(N)[C@H](N(C)C)C(O)=C(C(N)=O)C(=O)[C@@]4(C#N)C(O)=C2C3=O)cc1 [UT] | ** (toxicities less than 25 μg/mL are represented by **) |
